Reference: US20090041753A1, “Cytokine signaling” (priority 2006, published 2009)

Tested on: purified astrocyte cultures
Assay: CXCL1 addition to purified spinal cord astrocyte cultures, CSPG by immunocytochemistry and dot blot
Type: cell-based
Conditions: CXCL1 0.5 ng/ml, 3 days
Description: Cells were treated with CXCL1 (0.5 ng/ml) for 3 days and assayed for CSPG deposition onto substrate by immunocytochemistry and released into medium. […] GFAP (red), CSPG (green) (FIG. 34) For the culture studies, cultures of spinal cord astrocytes were assayed for basal levels of mRNA expression of CXCL1 and CXCR2 by RT-PCR (FIG. 33). The effect of 3 day CXCL1 protein addition (0.5 ng/ml) on CSPG protein expression was conducted on spinal cord astrocyte cultures as well as by immunocytochemistry and dot blot assays to analyze secreted and bound CSPG (FIG. 34).

In the case of “CXCL1: soluble secreted chemoattractive cytokine of the ELR positive family of CXC chemokines; preferred receptor CXCR2”, the “CSPG expression (deposition onto substrate, immunocytochemistry)” value is reported as “induces CSPG expression”, the “CSPG released into medium (dot blot)” value is reported as “increased CSPG” and the astrocyte morphology is reported as “changes morphology”.
